Test results published in patent publication US5873359A, “Methods and devices for treating pulmonary vasoconstriction and asthma” (The General Hospital Corporation, priority 1994, dated 1999).

Experiments:
[1] = test system: haemoglobin; details: Meyer 1988; cited from earlier work
[2] = test system: primary pulmonary hypertension; details: cited from earlier work
[3] = test system: heparin-protamine-induced elevated PAP and PVR; assay type: in vivo, sheep
Experimental: The heparin-protamine reaction was induced in these nine sheep by first administering heparin (200 U/kg; Elkins-Sinn, Cherry Hill, N.J.) followed five minutes later (at time zero) by protamine (2 mg/kg; Elkins-Sinn). Each of these sheep also served as a control. Six additional sheep were given an intravenous infusion of sodium nitroprusside (40 μg/kg/min body weight; Elkins-Sinn) while breathing air (data not shown).

[4] = test system: PPHN; assay: NO inhalation in two more infants with PPHN; assay type: in vivo, human
Text: Subsequent subjects. Two more infants with PPHN have been treated by NO inhalation.

[5] = test system: severe acute respiratory failure; assay: Inhaled NO in humans with severe acute respiratory failure (preliminary); assay type: in vivo, human; details: approximately 20 ppm inhaled, up to one month, five humans
Text: It is likely that inhaled NO acts by diffusing into the vascular space adjacent to the alveoli and causing relaxation of pulmonary vascular smooth muscle, thus permitting an increase in pulmonary blood flow and gas exchange. […] By localizing delivery of NO in a gaseous form directly to the lungs, the dissolved NO can immediately exert its pharmacological effect on target vascular smooth muscle, prior to inactivation of the NO by binding to hemoglobin. At the same time, the rapid binding of NO to hemoglobin ensures that any vasodilatory action of inhaled NO is solely a local or selective effect in the blood vessels of the lung, with no concomitant vasodilation downstream in the systemic circulation.

[6] = test system: pulmonary hypertension in ARDS; assay: Inhaled NO versus i.v. prostacyclin in adult with ARDS (first subject); assay type: in vivo, human; details: for QVA /QT: sulphur hexafluoride, from 38%
Experimental: First subject. The patient had suffered for three weeks from adult respiratory distress syndrome (ARDS) due to aspiration pneumonia. There was diffuse pulmonary edema and a large QVA /QT (30%). After 21 days of venovenous extracorporeal membrane oxygenator support (3 liters/min blood flow), the mean PAP was 55 mm Hg.
The short term effects of inhaled nitric oxide were compared with those of i.v. prostacyclin (PGI2; 5ng/kg/min). Mean pulmonary arterial pressure (PAP), right ventricular ejection fraction (RVEF) and gas exchange variables were evaluated. RVEF was assessed by thermodilution, and gas exchange alterations were analyzed using the multiple inert gas elimination technique (MIGET). MIGET and RVEF date were obtained on two different occasions. Ventilator settings were tidal volume 6 ml/kg, respiratory rate 14/min, Fi O2 0.4-0.48 and 5 cm H2 O of PEEP (positive end expiratory pressure).

[7] = test system: hypoxia-induced pulmonary vasoconstriction; assay: 40 ppm NO in healthy volunteers breathing 12% O2 (hypoxic, vasoconstricted lung); assay type: in vivo, human
Experimental: The effects of breathing 40 ppm NO were studied in five awake, healthy human volunteer subjects inhaling various gas mixtures for 10 min periods, with measurements starting at 6 min.

In the case of `[N]=O` [NO, nitric oxide], the binding to haemoglobin [1] is listed as “the most rapidly binding ligand to haemoglobin so far discovered”, the “PAP difference as percentage of ΔPAP” value ([2]; 40 ppm NO) is listed as “about 6%” and the “difference in PAP versus air” value ([2]; 40 ppm NO) is listed as 2.9 mm Hg. The “average PAP” value ([2]; breathing 40 ppm NO, seven patients, 59.6 mm Hg breathing air) was 56.7 mm Hg, the “average reduction in PVR” value ([2]; during inhalation of NO) was 9% and the “decrease in SAP” value ([2]; during inhalation of NO) was “No corresponding decrease in SAP”. For the same compound, the systemic hypotension ([3]; 180 ppm inhaled NO vs SNP) was “without the latter drug's propensity to cause marked systemic hypotension”, the “lowering of heparin-protamine-induced PAP” value ([3]; 180 ppm inhaled NO vs SNP 40 μg/kg/min) was “comparable to 40 μg/kg/min SNP infusion” and the “prevention of elevated PAP and PVR” value ([3]; 180 ppm inhaled NO, nine awake sheep) was “prevent the elevated PAP and PVR”. For the same compound, the preductal oxygenation ([4]; 20-80 ppm NO) was “increases in preductal oxygenation”, the response ([4]; 20-80 ppm NO) was “excellent response” and the survival ([4]; 20-80 ppm NO, two infants) was “both survived longterm”. The “need for ECMO” value ([4]; one of the infants, NO inhalation alone) was “ECMO was altogether avoided”, the “QVA /QT (right-to-left shunt)” value [5] was “reduces both pulmonary arterial pressure and QVA /QT” and the blood oxygen levels [5] was “marked increase of the patients' blood oxygen levels”. The pulmonary arterial pressure [5] was “reduces both pulmonary arterial pressure and QVA /QT”, the “decrease of mean PAP” value ([6]; 18 ppm NO in oxygen) was 12-14 mm Hg and the “mean PAP” value ([6]; 18 ppm NO in oxygen) was 38-42 mm Hg. For the same compound, the “reduction of PVR” value ([6]; 18 ppm NO in oxygen) was 44%, the wedge pressure ([6]; 18 ppm NO in oxygen, remaining constant) was ~15 mm Hg and the cardiac output ([6]; 18 ppm NO in oxygen, unchanged) was ~7 L/min. The “QVA /QT” value ([6]; 18 ppm NO) was 26%, the “QVA /QT” value ([6]; 36 ppm NO) was 33% and the additional vasodilation ([6]; increasing NO concentration to 36 ppm) was 2-5 mm Hg. For the same compound, the “change of systemic arterial pressure” value ([6]; inhaled NO) was “no change of systemic arterial pressure”, the “PAP and RVEF” value ([6]; inhaled NO and i.v. PGI2, text) was “lowered PAP and improved RVEF” and the “PaO2, right-to-left shunt and VD /VT” value ([6]; inhaled NO, in contrast to PGI2) was “increased PaO2 and decreased right-to-left shunt and VD /VT”. The MAP ([6]; occasion #1, NO 18 ppm) was 78 mm Hg, the PAP ([6]; occasion #1, NO 18 ppm) was 42 mm Hg and the PCWP ([6]; occasion #1, NO 18 ppm) was 15 mm Hg. The PaO2 ([6]; occasion #1, NO 18 ppm) was 146 torr, the “QA /QT” value ([6]; occasion #1, NO 18 ppm) was 26% and the “VD /VT” value ([6]; occasion #1, NO 18 ppm) was 43%. For the same compound, the “low VD /Q” value ([6]; occasion #1, NO 18 ppm) was 1%, the MAP ([6]; occasion #1, NO 36 ppm) was 75 mm Hg and the PAP ([6]; occasion #1, NO 36 ppm) was 37 mm Hg. The PCWP ([6]; occasion #1, NO 36 ppm) was 15 mm Hg, the PaO2 ([6]; occasion #1, NO 36 ppm) was 127 torr and the “QA /QT” value ([6]; occasion #1, NO 36 ppm) was 33%. The “VD /VT” value ([6]; occasion #1, NO 36 ppm) was 40%, the “low VD /Q” value ([6]; occasion #1, NO 36 ppm) was 0% and the MAP ([6]; occasion #2, NO 18 ppm) was 88 mm Hg. For the same compound, the PAP ([6]; occasion #2, NO 18 ppm) was 38 mm Hg, the PCWP ([6]; occasion #2, NO 18 ppm) was 14 mm Hg and the PaO2 ([6]; occasion #2, NO 18 ppm) was 127 torr. The RVEF ([6]; occasion #2, NO 18 ppm) was 36%, the MAP ([6]; occasion #2, NO 36 ppm) was 86 mm Hg and the PAP ([6]; occasion #2, NO 36 ppm) was 36 mm Hg. It also gave a PCWP ([6]; occasion #2, NO 36 ppm) of 12 mm Hg, a PaO2 ([6]; occasion #2, NO 36 ppm) of 113 torr and an RVEF ([6]; occasion #2, NO 36 ppm) of 39%. The CO ([7]; 12% O2 + 40 ppm NO, n = 5) was 8.37 ± 1.68 L/min, the CVP ([7]; 12% O2 + 40 ppm NO, n = 5) was 5.2 ± 2.6 mmHg and the MAP ([7]; 12% O2 + 40 ppm NO, n = 5) was 86.0 ± 5.7 mmHg. The PCWP ([7]; 12% O2 + 40 ppm NO, n = 5) was 8.5 ± 2.2 mmHg, the PVR ([7]; 12% O2 + 40 ppm NO, n = 5) was 0.62 mmHg · min/l and the PaCO2 ([7]; 12% O2 + 40 ppm NO, n = 5) was 34 ± 5 mmHg. It also gave a PaO2 ([7]; 12% O2 + 40 ppm NO, n = 5) of 45 ± 5 mmHg, a SaO2 ([7]; 12% O2 + 40 ppm NO, n = 5) of 83.9 ± 5.7% and a PAP ([7]; 12% O2 + 40 ppm NO, n = 5, p < 0.01 vs previous situation) of 13.7 ± 1.7 mmHg. The “reversal of hypoxia-induced pulmonary vasoconstriction” value ([7]; 40 ppm NO, 12% v/v oxygen) was “reversed completely”.
